Source: patent publication US20220040335A1, “RADIOLABELED PABA AND DERIVATIVES THEREOF FOR USE AS FUNCTIONAL RENAL IMAGING AGENTS” (priority 2018, published 2022)
Entries after “also recorded” stand apart in the source; their conditions may differ.

Assay: Dynamic PET/CT renal imaging (renogram) after intravenous injection in healthy rats
Assay type: in vivo, Wistar rats
Procedure: Methods for renal imaging: ^11C-PABA was synthesized using cGMP conditions at the JHU PET Center. Four female healthy Wistar rats (250-275 g of bodyweight) were injected with 30.5±10.3 MBq of ^11C-PABA through a tail-vein catheter and a dynamic PET scan was performed (15 frames×20 seconds, 5 frames×1 minute, 10 frames×5 minutes, total of 60 minutes) using the nanoScan PET/CT (Mediso). Subsequently, CT imaging was performed for anatomical co-registration. As a control, the same rats were also injected intravenously with 18.5 MBq of ^99mTc-MAG3 (Cardinal Health) and scanned using planar scintigraphy with the nanoSPECT/CT (Nanoscan). The images were analyzed with VivoQuant 3.0 (Invicro) and regions of interest were drawn using the CT as reference.

[1] = representative healthy rat, FIG. 3

For Nc1ccc([11C](=O)O)cc1 [^11C-PABA, [Carboxy-11C] 4-Aminobenzoic acid], the “time after injection at which PET/CT signal localized in the right kidney” value (FIG. 4A) was 220 to 240 s, the “signal in the kidneys compared to liver and spleen” value (at time-to-peak, healthy rats, FIG. 3) was 30-40 × and the “renal clearance / excretion from kidneys (in words)” value (dynamic PET after IV injection, healthy rats, FIG. 2) was “rapid excretion; also recorded: rapid renal clearance; also recorded: rapidly localized in the kidneys”. For the same molecule, the “background accumulation of the tracer in other organs (in words)” value (dynamic PET, healthy rats) was “very low background accumulation”, the “time-to-peak in time-activity curves” value (kidneys, dynamic PET after IV injection of 30.5±10.3 MBq, healthy female Wistar rats) was 9.5 ± 1.4 min and the “cortical phase of renogram” value [1] was 4.7 to 10 min. The “vascular phase of renogram” value [1] was 0 to 4.7 min.
